Experimental data taken from patent US4753928A, “Process for obtaining sexual products from mammals suitable for natural or artificial fertilization” (INNOFINANCE Altalanos Innovacios Pengintezet, priority 1985, dated 1988).
Where a SMILES comes first, the peptide text is derived from it. [ ]: non-standard residue; d: D form. pGlu = O=C1CC[C@@H](C(=O)O)N1

Experiments:
infant female rats = experiment: Super-ovulation induced in infant female rats; type: in vivo; conditions: out of 60 21-day old rats; i.p., 1-8 days, 1 or 2 μg daily or twice daily, finished with 5 or 10 μg
Protocol: 60 pieces of 21-day old infant rats weighing […] were treated with D-Phe^6 -Gln^8 -GnRH in normal saline solution intraperitoneally. The animals, depending on the treatment they were having, were placed into different groups. In the series of treatments lasting 1-8 days, 1 and 2 μg doses, respectively, were administered daily and twice daily. Treatments were finished with 5 and 10 μg doses, respectively.
After treatment all animals were killed with vapour of ether and their ovaries were removed after the animals died and 24 hours after the last treatment. Evaluation was done visually and from hystological samples. We found several developing follicles in the ovaries of the control animals, but not one of them was of Graf-follicle size, and neither corpur luteum, nor corpus haemorrhagicum could be detected. On the other hand, in all treated groups hormonal effect could be seen which made itself evident by the growing of follicles, by their turning into Graf-follicles, by their ovulation and the forming of regular corpus luteum. Enlarging of the oviduct and the uterus was also evident. […] In the group that received for 4 days 2 μg of GnRH analogue twice daily and on the 4th day the 2 μg treatment was followed by a 10 μg dose, in the ovary of all animals immediately before ovulation softened Graf follicles could be observed in large numbers. […]

infant domestic rabbits = experiment: Inducing super-ovulation in infant domestic rabbits; type: in vivo, rabbit; conditions: 5 μg twice daily 3 days i.p., 50 μg on 4th day, after 26 hours; 42-day old rabbits
Protocol: 20 42-day old rabbit whelps of the white pearl variety reared under large scale farming conditions were administered twice daily for three days 5 μg of D-Phe^6, Gln^8 -GnRH analogue intraperitoneally. Then the animals were divided into two groups and the one half of them was treated with 50 μg of active ingredient on the 4th day while the other half was killed with vapour of ether before treatment began. Developed follicles of this group were counted and used as control in determining the effect of the 50 μg dose. From the group kept alive, two animals were selected and through laparoscope probing their ovulation process was monitored for 10 hours while the animals were kept under narcosis (abdominal cavity was mirrored).

bison bull = experiment: Inducing spermiogenesis of bison bull in seasonal oligospermia; type: in vivo; conditions: 55th day
Excerpt: From bison bull belonging to Zoo and weighing 700 kg, under narcosis and by electrical means a sperm sample was obtained and it was established that it was in a seasonal oligospermial state. Symptoms of this were the following: under microscope magnifying 1500 times and used in sperm evaluation the number of sperm found was 5-20 and defective sperms reached 75-80%. The density of the ejaculate was 0.5. Sperms of this quality are unsuitable for fertilization. Thereafter, twice weekly the animal was treated intramuscularly with 200-200 μg dose each of D-phe^6, Gln^8 -GnRH analogue, using the compressed air injection method. On the 55th day following commencement of treatment, under narcosis and with a time lapse of one hour the animal was ejaculated twice. The two ejaculates were combined; their density was 4, their motility 55%. The thus-obtained sperms were deep frozen, then the decrease of motility as a result of deep freezing was checked: this was only 5%.

barren chinchillas = experiment: Treatment of chinchilla barren for prolonged time; type: in vivo
Protocol: Twenty chinchillas barren for at least two years were treated twice daily for three days with 10 μg each of D-Phe^6, Gln^8 -GnRH analogue through intraperitoneal injection. On the 4th day the animals were injected with 75 μg of GnRH analogue, then they were put together with the male. 12 of the Chinchillas gave birth within 4 months. Parallel with the above treatment, 3 animals barren for more than 2 years having very valuable fur as "black" mutant chinchillas were treated twice daily for three days with 10 μg each of D-Phe^6, Gln^8 -GnRH analogue, administered through peritoneal injection. The animals were injected on the 4th day with 75 μg of GnRH analogue, then, as customary, were put together with the male.

female blue fox = experiment: Treatment of female blue fox in seasonal unoestrus for inducing fertile oestrus; type: in vivo
Protocol: Female blue fox in seasonal unoestrus was examined in December under narcosis with the aid of laparoscopy. […] Then the animal had twice daily intramuscular treatment for ten days with a 1 to 5 μg dose of D-Phe^6, Gln^8 -GnRH analogue. On the tenth day another laparoscopy was carried out under narcosis. […] Also in December a rejected female due to mammalian atrophy was similarly treated twice a day with 2 μg each of D-Phe^6, Gln^8 -GnRH analogue the effect of which was followed by looking at changes in condition of the neck of uterus. On the 6th day following first treatment, the neck of uterus opened. At this time the treatment was carried out with 50 μg of active ingredient. 16 hours later conditions of the ovaries were examined with mirroring and a state immediately prior to ovulation was found. Then abdominal cavity was entirely opened, the ovaries were removed and by puncturing ova were removed from a total of 11 Graf-follicles. Six regular, normal ova covered with corona radiata were found.

[1] = tested on: ovary of infant domestic cat; experiment: Stimulating function of ovary in infant domestic cat (D-Phe6,Gln8-GnRH); type: in vivo, Felis cattus domesticus; conditions: 100 μg i.m. every second day, 4 times; 45 days old kittens
Protocol: 5 kittens each weighing 0.3 kg and being 45 days old were treated with D-Phe^6, Gln^8 -GnRH analogue every second day, altogether 4 times, using 100 μg each of the active ingredient. It was intramuscularly administered after dilution in normal saline solution. Following treatment, ovaries of both sides were removed from the animals under narcosis and visual examination took place. Thereafter the ovaries were fixed in formalin, and then hystological test was carried out. […] Under incrustation developing follicles were found, well definable from the bright, butter-coloured ovary. Some of the follicles were of Graf-follicle size.

[2] = tested on: primordial follicles of infant domestic female cat; experiment: Stimulating primordial follicles in infant domestic female cat; type: in vivo, Felis cattus domesticus; conditions: 0.1 μg i.m. three times daily for three days
Protocol: 5 kittens of 0.3 kg weight and being 45 days old were treated with D-Phe^6, Gln^8 -GnRH analogue in such a way that under narcosis the left-side ovary was removed. Thereafter the medium was treated for three days, three times daily, with a 4-hour time interval between treatments. Treatment was carried out nine times in all and every instance a 0.1 μg dose of the analogue was used. The active ingredient was suspended in normal saline solution and propyleneglycol and it was administered intramuscularly. After treatment remaining ovaries were removed, evaluated visually, then after fixing hystological examination was performed. Visually both ovaries were butter-yellow, looked homogeneous, but the treated ovary was slightly enlarged.

**Q.** Which results are given for `CC(C)C[C@H](NC(=O)[C@@H](Cc1ccccc1)NC(=O)[C@H](Cc1ccc(O)cc1)NC(=O)[C@H](CO)NC(=O)[C@H](Cc1c[nH]c2ccccc12)NC(=O)[C@H](Cc1c[nH]cn1)NC(=O)[C@@H]1CCC(=O)N1)C(=O)N[C@@H](CCC(N)=O)C(=O)N1CCC[C@H]1C(=O)NCC(N)=O` [D-Phe^6, Gln^8 -GnRH analogue, D-Phe^6, Gln^8 -GnRH] ([pGlu]HWSY[dF]LQPG-NH2)?
**A.** animals that did not react to the treatment (infant female rats): 4; ovulations and corpora haemorrhagica in each animal (infant domestic rabbits): 30-40; decrease of motility as a result of deep freezing (bison bull): 5%; density of ejaculate (bison bull; 200 μg i.m. twice weekly, two ejaculates combined): 4; sperm motility (bison bull; two ejaculates combined): 55%; black mutant chinchillas that gave birth within four months (barren chinchillas; 3 animals barren >2 years, same treatment): all three animals gave birth to young ones; chinchillas that gave birth within 4 months (barren chinchillas; of twenty barren ≥2 years, 10 μg twice daily 3 days i.p., 75 μg on 4th day): 12; regular, normal ova covered with corona radiata found (female blue fox; second female): Six; day on which the neck of uterus opened (female blue fox; second female, 2 μg twice a day): 6 days; Graf-follicles punctured (female blue fox; second female, 16 hours after 50 μg): 11; condition of neck of uterus (female blue fox; tenth day, same animal): the neck of uterus was open; corpora haemorrhagica on ovaries of both sides [1]: 5-7; follicles which started to grow in treated ovary [2]: many hundreds of
